Columns and labels:
[1] = test system: yeast; experiment: One-step fermentation of ground corn slurry with T. cingulata GA + R. pusillus AA blend, ethanol by HPLC; type: cell-based; conditions: for Ethanol yield: one-step fermentation
Description: All treatments were evaluated via mini-scale fermentations. 410 g of ground yellow dent corn (with an average particle size around 0.5 mm) was added to 590 g tap water. This mixture was supplemented with 3.0 mL 1 g/L penicillin and 1 g of urea. The pH of this slurry was adjusted to 4.5 with 40% H2SO4. Dry solid (DS) level was determined to be 35 wt. %. Approximately 5 g of this slurry was added to 20 mL vials. Each vial was dosed with the appropriate amount of enzyme dosage shown in Table 2 below followed by addition of 200 microL yeast propagate/5 g slurry. Actual enzyme dosages were based on the exact weight of corn slurry in each vial. Vials were incubated at 32° C. Nine replicate fermentations of each treatment were run. Three replicates were selected for 24 hours, 48 hours and 70 hours time point analysis. Vials were vortexed at 24, 48 and 70 hours and analyzed by HPLC. The HPLC preparation consisted of stopping the reaction by addition of 50 microL of 40% H2SO4, centrifuging, and filtering through a 0.45 micrometer filter. Samples were stored at 4 C until analysis. Agilent™ 1100 HPLC system coupled with RI detector was used to determine ethanol and oligosaccharides concentration. The separation column was aminex HPX-87H ion exclusion column (300 mm×7.8 mm) from BioRad™).
The experiment was carried out as described in Example 2, except that salicylic acid (SA) was replaced with acetyl salicylic acid (ASA). The treatment and enzyme dosing was described in table below.

[2] = test system: RED STAR yeast; experiment: Dose/response study of salicylic acid in conventional SSF; type: cell-based
Description: The experiment was carried out as described in Example 1, except that the following enzyme blends was used for all treatments: • 0.3 AGU Talaromyces emersonii glucoamylase/g DS; • 0.0025 mg Rhizomucor pusillus alpha-amylase/g DS; and • 0.0125 mg Trametes cingulata glucoamylase/g DS. All treatments and controls included 8 replicates. [table]

[3] = test system: Pichia stipitis (CBS6054); conditions: salicylic acid 5 mM, 30° C., pH 6, FIG. 9
[4] = test system: yeast; experiment: Yield boosting effect of salicylic acid on ethanol production from starch-containing material (conventional SSF), summary findings; type: cell-based
Source text: Further, the effect on yeast growth is 2-fold.

[5] = test system: RED STAR yeast; experiment: Conventional simultaneous saccharification fermentation (SSF) of liquefied corn mash, ethanol yield by weight loss and HPLC; type: cell-based; conditions: weight loss method, all the enzymes tested, FIGS. 1, 2 and 3
Description: Liquefied corn mash was used to evaluate the effect of adding salicylic acid (SA) to a known enzyme dosage of
The performance of these enzymes was compared to controls without salicylic acid addition. The experimental set-up used is described in table below.
5.5 g of RED STAR™ yeast was rehydrated in 100 mL distilled water and incubated at 32° C. for 30 minutes prior to the beginning of fermentation. Approximately 50 million cells/g DS of yeast were added to each of the fermentations.
The corn mash was thawed to room temperature. Urea and Penicillin were added to a final concentration of […] and 3 mg/L respectively. Small-scale (˜4 g) fermentations were carried out in 15 mL polypropylene tubes with five replicates for each experimental condition. The tubes were prepared by drilling a 1/32 inch (1.5 mm) hole and the empty tubes were then weighed before liquefied corn mash was added. The tubes were weighed again after mash was added to determine the exact weight of mash in each tube. This weight was used to calculate the enzyme dosage necessary as follows:
Enzyme was added according to dosage described in table above and 100 μl of rehydrated yeast were added to each tube to begin fermentation. Fermentation progress was followed by weighing the tubes over time for approximately 70 hours. Tubes were vortexed briefly before each weighing. […]

`CC(=O)Oc1ccccc1C(=O)O` [ASA, acetyl salicylic acid, reference compound] showed an Ethanol yield ([1]; ASA 1 mM (mM/g DS), 24 hours) of 108.19, an Ethanol yield ([1]; ASA 1 mM (mM/g DS), 48 hours) of 153.37 and an Ethanol yield ([1]; ASA 1 mM (mM/g DS), 70 hours) of 160.39. The “Fermentation kinetic and final ethanol yield” value ([1]; ASA 1.0 mM/g DS, FIG. 5) was “gave an increase in fermentation kinetic and also final ethanol yield”.

`O=C(O)c1ccccc1O` [SA, salicylic acid] was tested, and the “Glycerol after 70 hours of fermentation” value ([2]; HPLC, as a function of SA dose, FIG. 8) was “consistently reduced the amount of the by-product glycerol”, the “Fermentation kinetics and final ethanol yield” value ([2]; weight loss data, FIG. 6) was “increased the fermentation kinetics and final ethanol yield” and the Ethanol yield ([1]; SA 1 mM (mM/g DS), 24 hours) was 107.77. It also gave an Ethanol yield ([1]; SA 1 mM (mM/g DS), 48 hours) of 144.61, an Ethanol yield ([1]; SA 1 mM (mM/g DS), 70 hours) of 151.80 and an Ethanol yield ([1]; SA 2.5 mM (mM/g DS), 24 hours) of 107.53. For the same molecule, the Ethanol yield ([1]; SA 2.5 mM (mM/g DS), 48 hours) was 143.11, the Ethanol yield ([1]; SA 2.5 mM (mM/g DS), 70 hours) was 150.80 and the Ethanol yield ([1]; SA 5 mM (mM/g DS), 24 hours) was 104.46. The Ethanol yield ([1]; SA 5 mM (mM/g DS), 48 hours) was 137.21, the Ethanol yield ([1]; SA 5 mM (mM/g DS), 70 hours) was 146.07 and the Ethanol yield ([1]; SA 15 mM (mM/g DS), 24 hours) was 75.03. The Ethanol yield ([1]; SA 15 mM (mM/g DS), 48 hours) was 117.40, the Ethanol yield ([1]; SA 15 mM (mM/g DS), 70 hours) was 126.40 and the “Fermentation speed and final ethanol yield” value ([1]; Trametes cingulata GA and Rhizomucor pusillus AA blend, FIG. 4) was “increases the fermentation speed and final ethanol yield”. For the same molecule, the “Ability of P. stipitis to tolerate the inhibitors in the unwashed biomass hydrolyzate” value [3] was “improves the ability of P. stipitis to tolerate the inhibitors”, the Residual glucose ([4]; at high salicylic acid concentrations) was “increased” and the “Effect on yeast growth” value ([4]; at higher concentrations) was “reduce yeast growth”. For the same molecule, the “Effect on cell growth” value ([4]; at lower concentration) was “positive effect on cell growth”, the Effective concentration range ([4]; by HPLC) was 1.25 to 2.5 mM and the Maximum ethanol increase ([4]; by HPLC) was 1.3%. For the same molecule, the Effective concentration range ([4]; by weight loss determination) was 0.63 to 2.5 mM, the Maximum ethanol increase ([4]; by weight loss determination) was 3.5% and the Glycerol production ([4]; with increasing salicylic acid concentration) was “decreased dramatically”. The “Fermentation kinetic and final ethanol yield” value [5] was “increases the fermentation kinetic and also final ethanol yield”.

Source: patent US20080145903A1, “PROCESSES OF PRODUCING FERMENTATION PRODUCTS” (priority 2006, published 2008)
